Source: paper PMC3445474 (PLoS ONE, 2012)
Several values for one entry are separate records, joined by “and”; a condition that tells them apart may be missing. Identical values can stand only once. Like-named read-outs stand apart in the source and are kept apart here.

Columns and labels:
[1] = tested on: viral and bacterial neuraminidases; type: biochemical, influenza viruses, bacteria, human saliva; settings: read-out: IC50, viral, bacterial and saliva neuraminidases
[2] = tested on: A/Udorn/72 virus; assay: microbe, parasite or virus in culture; type: cell-based, influenza A virus; settings: for activity at 0.25 µM: MDCK, read-out: Virus yield (progeny virus, % of control)
[3] = tested on: B/Johannesburg/99 virus; assay: Virus growth inhibition assay in MDCK cells (progeny virus by plaque assay); type: cell-based, influenza B virus; settings: for activity at 0.25 µM: read-out: Virus yield (progeny virus, % of control)
Protocol: The infectivity of viruses was determined by plaque assay as described below. Ten-fold serial dilutions of virus samples were made in Hanks balanced salt solution (HBSS; GIBCO, Gland Island, NY, USA) and 0.1 ml of the dilutions was inoculated on MDCK cell monolayers in 6-well tissue culture plates (Corning, Lowell, MA, USA). After adsorption of the virus onto the cells for 30 min at room temperature, 1.6 ml of Leibovitz’s L15 medium (GIBCO, Gland Island, NY, USA) containing 0.6% SeaKem ME agarose (Lonza, Basel, Switzerland), 1.5% gelatin (Nacalai, Kyoto, Japan) and 2.5 µg/ml TPCK-trypsin was added to each well and allowed to solidify. The plates were incubated for 3 days at 34°C and the number of plaques was counted. Infectivity was expressed as plaque forming units (pfu) per ml.
The inhibition of virus growth by neuraminidase inhibitors in the presence or absence of bacterial neuraminidase was assayed by measuring the released progeny virus in the culture fluid of infected cells. MDCK cells seeded on 12-well tissue culture plates were inoculated with 50 µl of virus suspension at a MOI of 0.001 or 0.01. After the adsorption for 1 h on ice, 1 ml MEM supplemented with 2.5 µg/ml TPCK-trypsin containing neuraminidase inhibitor and/or bacterial neuraminidase was added to each well. At the indicated times of incubation at 37°C in 5% CO2, culture media were harvested and the virus titers, performed in triplicate wells, were determined by plaque assay.

[4] = tested on: neuraminidase of influenza viruses (A/Udorn/72(H3N2), A/Chiba/2009(H1N1)pdm and B/Johannesburg/99); type: biochemical, influenza virus
[5] = tested on: bacterial and salivary neuraminidases (S. pneumoniae, saliva, A. ureafaciens, V. cholerae RDE); type: biochemical, human saliva
[6] = Concentration of zanamivir in sputum after oral inhalation (clinical setting); type: in vivo; settings: minutes after oral inhalation of 10 mg of zanamivir powder
[7] = set-up: method as in PMID 10858364; settings: 6 h after oral inhalation of 10 mg of zanamivir powder; cited from earlier work

| Compound | IC50 [1] | Effect on influenza virus production [2] | Restoration of virus production by S. pneumoniae culture supernatant [2] | Restoration of virus production by S. pneumoniae culture supernatant ([3]; 2.5 mM DANA + S. pneumoniae culture supernatant) | Effect on influenza virus production ([3]; 2.5 mM DANA, MDCK cells, MOI 0.001, 40 hpi) | Potency against influenza virus NA relative to bacterial neuraminidases [4] | Concentrations at which bacterial neuraminidases were inhibited ([5]; Figure 2A) | IC50 ([5]; range over S. pneumoniae, saliva, A. ureafaciens, V. cholerae RDE) | activity at 0.25 µM ([2]; Influenza A virus) | activity at 0.25 µM ([2]; Streptococcus pneumoniae) | activity at 0.25 µM ([3]; 250 nM zanamivir + Streptococcus pneumoniae culture supernatant (6 µunits/ml neuraminidase activity), MDCK cells, MOI 0.001, 40 hpi) | activity at 0.25 µM ([3]; Influenza B virus, 250 nM zanamivir, MDCK cells, MOI 0.001, 40 hpi) | Concentration of zanamivir in sputum, calculated [6] | Concentration of zanamivir in sputum [7] |
| --- | --- | --- | --- | --- | --- | --- | --- | --- | --- | --- | --- | --- | --- | --- |
| CC(=O)N[C@H]1[C@H]([C@H](O)[C@H](O)CO)OC(C(=O)O)=C[C@@H]1O [DANA, 2-Deoxy-2,3-dehydro-N-acetylneuraminic acid] | 2 to 20 µM | inhibited influenza virus production | not restored | not restored | inhibited influenza virus production |  |  |  |  |  |  |  |  |  |
| CC(=O)N[C@H]1[C@H]([C@H](O)[C@H](O)CO)OC(C(=O)O)=C[C@@H]1N=C(N)N [zanamivir, Zanamivir] |  |  |  |  |  | approximately a million | above 10 µM | 100 to 5000 µM | 2% | 84% | 92% | 0.4% | ≤ 5,870 ng/ml and ≤ 17.5 µM | ≤ 1,441 ng/ml and ≤ 4.3 µM |
